The target of series [1] is T1, Epidermal growth factor receptor (Homo sapiens, UniProt P00533, L858R/T790M). Put plainly: Inhibition of recombinant N-terminal GST-tagged human EGFR T790M/L858R double mutant using biotinylated TK substrate incubated for 50 mins by HTRF assay. The series is classed as protein assay.
The species entered for the next series is Homo sapiens. Put plainly: Selectivity ratio of IC50 for wild-type EGFR (unknown origin) to IC50 for recombinant N-terminal GST-tagged human EGFR T790M/L858R double mutant.
The subject of series [2] is Epidermal growth factor receptor (Homo sapiens), P00533 [T790M]. Put plainly: Reversible inhibition of EGFR T790M mutant (unknown origin).
Series [3] addresses T1, Epidermal growth factor receptor. Put plainly: Inhibition of EGFR T790M/L858R double mutant autophosphorylation in human NCI-H1975 cells incubated for 2 hrs by ELISA. The series is classed as cell-based.
Series [4] concerns the target Epidermal growth factor receptor (Homo sapiens, UniProt P00533, EX19DEL). Put plainly: Inhibition of EGFR exon19 deletion activating mutant autophosphorylation in human PC9 cells incubated for 2 hrs by ELISA. The class given is cell-based, PC-9.
In series [5] the target is Epidermal growth factor receptor (Homo sapiens, UniProt P00533). Put plainly: Inhibition of wild-type EGFR autophosphorylation in human LoVo cells incubated for 2 hrs followed by EGF-stiumlation for 10 mins by ELISA. The class given is cell-based.
Chain of Epidermal growth factor receptor (Homo sapiens, UniProt P00533) (P00533 whole entry): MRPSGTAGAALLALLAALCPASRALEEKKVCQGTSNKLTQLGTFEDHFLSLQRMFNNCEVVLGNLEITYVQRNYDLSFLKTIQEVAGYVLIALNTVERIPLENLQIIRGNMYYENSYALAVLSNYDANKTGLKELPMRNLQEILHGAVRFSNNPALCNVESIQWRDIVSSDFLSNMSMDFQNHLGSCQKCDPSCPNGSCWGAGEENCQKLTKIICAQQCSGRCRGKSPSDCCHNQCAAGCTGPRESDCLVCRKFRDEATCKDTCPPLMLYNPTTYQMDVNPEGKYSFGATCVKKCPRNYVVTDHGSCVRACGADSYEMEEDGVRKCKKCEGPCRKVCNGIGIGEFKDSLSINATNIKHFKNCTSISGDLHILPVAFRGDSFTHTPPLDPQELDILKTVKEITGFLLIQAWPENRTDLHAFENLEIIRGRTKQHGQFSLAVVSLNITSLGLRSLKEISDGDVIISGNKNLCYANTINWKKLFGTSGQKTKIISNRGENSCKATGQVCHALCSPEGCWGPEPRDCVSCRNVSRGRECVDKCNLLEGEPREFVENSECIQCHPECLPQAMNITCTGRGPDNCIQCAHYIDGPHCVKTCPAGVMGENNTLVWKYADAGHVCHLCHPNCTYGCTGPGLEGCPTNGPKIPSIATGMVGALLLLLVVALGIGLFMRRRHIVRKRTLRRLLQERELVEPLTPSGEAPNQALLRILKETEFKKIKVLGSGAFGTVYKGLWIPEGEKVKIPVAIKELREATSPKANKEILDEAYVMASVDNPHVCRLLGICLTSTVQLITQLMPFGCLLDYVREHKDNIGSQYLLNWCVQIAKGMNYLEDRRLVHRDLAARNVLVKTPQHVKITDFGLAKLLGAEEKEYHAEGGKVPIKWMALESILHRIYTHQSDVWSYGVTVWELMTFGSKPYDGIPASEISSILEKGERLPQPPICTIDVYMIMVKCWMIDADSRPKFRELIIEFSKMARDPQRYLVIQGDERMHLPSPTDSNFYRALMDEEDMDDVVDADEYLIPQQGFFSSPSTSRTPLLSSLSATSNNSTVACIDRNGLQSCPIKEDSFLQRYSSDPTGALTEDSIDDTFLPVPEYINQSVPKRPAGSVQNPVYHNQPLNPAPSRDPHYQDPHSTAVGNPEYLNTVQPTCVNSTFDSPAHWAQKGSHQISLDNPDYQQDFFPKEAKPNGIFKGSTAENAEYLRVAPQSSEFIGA
Series [6] in a line: Intrinsic clearance in human liver microsomes. The series is classed as ADME. The conditions noted are these: read-out: CLH.
A short description of series [7]: Solubility of compound at pH 7.4. The class given is physicochemical. The conditions noted are these: buffer.
A short description of series [8]: Chemical stability of compound. The class given is physicochemical.

≈ marks a conversion by molar mass, not a printed value. Calls of active or inactive are those of the source. The rule behind the calls is not given here. A value given as a limit tells only on which side of the number the result lay.

Results on 25 compounds are retold here after ChEMBL document CHEMBL3813644, “Utilization of Structure-Based Design to Identify Novel, Irreversible Inhibitors of EGFR Harboring the T790M Mutation” (ACS Med Chem Lett, 2016).

T1 sequence (P00533 25-1210 T790M/L858R limits assumed): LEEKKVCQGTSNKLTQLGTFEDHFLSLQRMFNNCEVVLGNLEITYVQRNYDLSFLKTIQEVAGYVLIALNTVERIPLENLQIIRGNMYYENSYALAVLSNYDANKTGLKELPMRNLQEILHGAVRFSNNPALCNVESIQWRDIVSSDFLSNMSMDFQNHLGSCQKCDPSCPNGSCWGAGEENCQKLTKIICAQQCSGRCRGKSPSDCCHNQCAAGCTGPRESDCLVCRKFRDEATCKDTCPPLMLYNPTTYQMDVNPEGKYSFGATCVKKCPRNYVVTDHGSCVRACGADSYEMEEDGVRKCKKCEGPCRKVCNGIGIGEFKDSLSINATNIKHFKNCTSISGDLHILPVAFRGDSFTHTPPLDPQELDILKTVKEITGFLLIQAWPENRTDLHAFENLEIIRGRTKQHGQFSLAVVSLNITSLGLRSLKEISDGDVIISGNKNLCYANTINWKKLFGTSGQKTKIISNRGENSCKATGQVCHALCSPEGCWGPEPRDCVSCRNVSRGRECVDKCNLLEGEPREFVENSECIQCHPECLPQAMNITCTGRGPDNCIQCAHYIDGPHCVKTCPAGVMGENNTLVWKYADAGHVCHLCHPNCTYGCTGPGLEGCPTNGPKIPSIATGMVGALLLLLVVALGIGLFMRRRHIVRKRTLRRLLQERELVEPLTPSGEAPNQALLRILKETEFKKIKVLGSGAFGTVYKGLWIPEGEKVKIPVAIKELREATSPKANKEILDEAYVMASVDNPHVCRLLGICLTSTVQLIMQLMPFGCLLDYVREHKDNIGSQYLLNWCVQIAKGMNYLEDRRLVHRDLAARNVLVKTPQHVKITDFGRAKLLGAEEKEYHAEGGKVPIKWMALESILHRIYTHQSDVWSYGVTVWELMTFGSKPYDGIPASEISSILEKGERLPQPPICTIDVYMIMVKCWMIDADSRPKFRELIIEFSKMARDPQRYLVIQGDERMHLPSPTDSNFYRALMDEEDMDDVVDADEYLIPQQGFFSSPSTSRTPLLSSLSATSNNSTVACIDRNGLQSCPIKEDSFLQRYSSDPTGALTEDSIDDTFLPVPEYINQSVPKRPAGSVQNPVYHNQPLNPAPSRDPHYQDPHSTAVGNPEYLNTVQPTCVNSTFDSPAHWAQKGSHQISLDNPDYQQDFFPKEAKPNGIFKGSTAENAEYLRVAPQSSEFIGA
Chain of Epidermal growth factor receptor (Homo sapiens, UniProt P00533, EX19DEL) (P00533 whole entry, looked up, stated change not applied): as the sequence (P00533 whole entry) above
Chain of Epidermal growth factor receptor (Homo sapiens), P00533 [T790M] (P00533 whole entry T790M): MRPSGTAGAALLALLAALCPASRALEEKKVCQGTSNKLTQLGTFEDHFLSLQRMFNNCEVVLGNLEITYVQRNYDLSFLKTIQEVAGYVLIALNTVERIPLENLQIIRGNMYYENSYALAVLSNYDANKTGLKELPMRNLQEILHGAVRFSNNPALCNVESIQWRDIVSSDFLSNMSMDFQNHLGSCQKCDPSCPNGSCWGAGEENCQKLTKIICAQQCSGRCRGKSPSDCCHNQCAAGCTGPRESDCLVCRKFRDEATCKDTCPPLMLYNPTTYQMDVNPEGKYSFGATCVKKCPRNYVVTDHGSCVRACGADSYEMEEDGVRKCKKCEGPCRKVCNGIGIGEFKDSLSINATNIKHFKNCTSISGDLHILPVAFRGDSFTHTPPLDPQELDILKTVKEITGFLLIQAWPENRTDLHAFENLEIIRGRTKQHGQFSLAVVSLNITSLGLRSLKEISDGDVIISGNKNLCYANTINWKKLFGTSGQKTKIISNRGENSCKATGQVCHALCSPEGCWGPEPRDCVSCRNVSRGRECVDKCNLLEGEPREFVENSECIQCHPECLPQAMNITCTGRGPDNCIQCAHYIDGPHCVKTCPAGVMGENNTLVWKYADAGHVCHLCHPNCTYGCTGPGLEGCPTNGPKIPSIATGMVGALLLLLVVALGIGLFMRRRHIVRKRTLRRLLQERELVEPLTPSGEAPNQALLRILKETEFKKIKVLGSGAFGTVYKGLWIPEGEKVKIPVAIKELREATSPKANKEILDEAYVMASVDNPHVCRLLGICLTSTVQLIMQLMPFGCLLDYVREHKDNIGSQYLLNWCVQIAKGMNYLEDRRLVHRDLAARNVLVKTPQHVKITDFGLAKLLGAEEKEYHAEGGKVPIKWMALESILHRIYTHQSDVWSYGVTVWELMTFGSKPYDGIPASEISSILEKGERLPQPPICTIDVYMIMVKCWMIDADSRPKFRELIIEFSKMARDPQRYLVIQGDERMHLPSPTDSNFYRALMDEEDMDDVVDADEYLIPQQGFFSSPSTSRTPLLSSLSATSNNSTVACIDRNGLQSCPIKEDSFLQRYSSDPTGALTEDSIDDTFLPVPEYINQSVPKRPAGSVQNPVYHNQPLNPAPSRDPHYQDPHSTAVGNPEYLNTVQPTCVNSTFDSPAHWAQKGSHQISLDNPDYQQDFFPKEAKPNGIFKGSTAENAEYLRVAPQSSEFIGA

Regarding `CCn1c(-c2nc(-c3cnn(C4CCN(C)CC4)c3)cnc2N)nc2ccccc21`, in series [1], the IC50 was 50 nM. The Ratio IC50 in the series listed under Homo sapiens came to 5. Moreover, the inhibition result in [2] was “Active”.
Regarding `C=CC(=O)Nc1cccc(-n2c(-c3nc(-c4cnn(C5CCN(C(=O)CN(C)C)CC5)c4)cnc3N)nc3ccccc32)c1`, the EC50 in [3] amounted to 15 nM; in series [4] it was 13 nM; in series [5] it was 1140 nM. In series [6], the microsomal CLint amounted to 66 µL/min/mg. Besides, the solubility in series [7] was 18 µM (≈ 10.6 µg/mL).
For the compound `C=CC(=O)Nc1cccc(-n2c(-c3nc(-c4cnn(C5CCN(C(C)C)CC5)c4)cnc3N)nc3ccccc32)c1`, the EC50 in series [3] turned out to be 14 nM; in [4] it was 9 nM; in series [5], 760 nM. The microsomal CLint in series [6] worked out at 37 µL/min/mg. Besides, the solubility in series [7] is below 10 µM.
Regarding `C=CC(=O)Nc1cccc(-n2c(-c3nc(-c4cnn(C)c4)cnc3N)nc3ccccc32)c1`, the EC50 in series [3] stood at 10 nM; in series [4] it was 9 nM; in series [5], 1070 nM. Also, the microsomal CLint in series [6] came to 24 µL/min/mg. Also, in [7], the solubility was below 10 µM.
Regarding `C=CC(=O)Nc1cc(-n2c(-c3nc(-c4cnn(C5CCN(C)CC5)c4)cnc3N)nc3ccccc32)ccc1OC`, the half-maximal effective concentration (EC50) in series [3] is 1340 nM; in series [4], 370 nM; in series [5] it was above 20000 nM. Besides, in series [7], the solubility was below 10 µM.
As to `C=CC(=O)Nc1cccc(-n2c(-c3nc(-c4cnn(CCN5CCN(C)CC5)c4)cnc3N)nc3ccccc32)c1`, the EC50 in series [3] worked out at 15 nM; in series [4] it was 15 nM; in series [5], 2310 nM. The microsomal CLint in series [6] stood at 60 µL/min/mg. The compound further showed a solubility in series [7] of 30 µM (≈ 16.5 µg/mL).
`C=CC(=O)Nc1cccc(-n2c(-c3nc(-c4cnn(CCO)c4)cnc3N)nc3ccccc32)c1`: the half-maximal effective concentration (EC50) amounted to 12 nM in series [3], 8 nM in series [4] and 2250 nM in series [5]. Besides, in [6], the microsomal CLint worked out at 54 µL/min/mg. The solubility in series [7] is below 10 µM.
For `C=C(C)C(=O)Nc1cccc(-n2c(-c3nc(-c4cnn(C5CCN(C)CC5)c4)cnc3N)nc3ccccc32)c1`, the EC50 in series [3] is above 20000 nM; in [4] it was 9130 nM; in series [5], above 30000 nM.
On to `C=CC(=O)Nc1cccc(-n2c(-c3nc(-c4cnn(C5CCN(C)CC5)c4)cnc3N)nc3cnccc32)c1`, for which the EC50 was 18 nM in series [3], 10 nM in [4] and 4390 nM in series [5]. In addition, in [6], the microsomal CLint stood at 169 µL/min/mg. The same compound gave a solubility in series [7] of 300 µM (≈ 156 µg/mL).
For `C=CC(=O)Nc1cccc(-n2c(-c3nc(-c4cnn(C5CCN(C)CC5)c4)cnc3N)nc3ccccc32)c1F`, the EC50 in series [3] was determined as 23 nM; in series [4], 26 nM; in [5] it was 2060 nM. Further, the solubility in series [7] is below 10 µM.
Turning to `C=CC(=O)NCCCn1c(-c2nc(-c3cnn(C4CCN(C)CC4)c3)cnc2N)nc2ccccc21`, the IC50 in series [1] was found to be 200 nM. Also, it took 1710 nM to reach a half-maximal effect in [3] (EC50).
For the compound `C=CC(=O)Nc1cccc(-n2c(-c3nc(-c4cnn(C5CCN(C(=O)CO)CC5)c4)cnc3N)nc3ccccc32)c1`, the EC50 in [3] worked out at 24 nM; in series [4], 18 nM; in [5], 3000 nM. Further, in series [6], the microsomal CLint was above 300 µL/min/mg. In [7], this compound displayed a solubility below 10 µM.
On to `C=CC(=O)Nc1ccccc1Cn1c(-c2nc(-c3cnn(C4CCN(C)CC4)c3)cnc2N)nc2ccccc21`, for which the EC50 in series [3] was found to be 7 nM; in series [4], 3 nM; in [5], 420 nM. Also, in series [7], the solubility worked out at 35 µM (≈ 18.7 µg/mL). The Stability entry in series [8] is on record as “Unstable”.
As to `C=CC(=O)Nc1cccc(-n2c(-c3nc(-c4cnn(C5CCN(CC)CC5)c4)cnc3N)nc3ccccc32)c1`, the EC50 in [3] came to 9 nM; in series [4], 16 nM; in [5], 1960 nM. Further, in [6], the microsomal CLint is 197 µL/min/mg. For the same compound, the solubility in series [7] was below 10 µM.
`CN1CCC(n2cc(-c3cnc(N)c(-c4nc5ccccc5[nH]4)n3)cn2)CC1`: in series [1], the concentration for half-maximal inhibition (IC50) turned out to be 290 nM. Moreover, the Ratio IC50 in the series listed under Homo sapiens came out at 5. In addition, the inhibition entry in series [2] was “Active”.
For `C=CC(=O)Nc1cccc(-n2c(-c3nc(-c4cnn(C5CCN(C(C)=O)CC5)c4)cnc3N)nc3ccccc32)c1`, the concentration for a half-maximal effect (EC50) in series [3] was 22 nM; in series [4] it was 23 nM; in series [5], 3510 nM. Also, in series [6], the microsomal CLint was above 300 µL/min/mg. In addition, the solubility in series [7] was below 10 µM.
With `C=CC(=O)Nc1ccc(-n2c(-c3nc(-c4cnn(C5CCN(C)CC5)c4)cnc3N)nc3ccccc32)cc1`, the EC50 in series [3] was 550 nM; in series [4], 120 nM; in [5], 3380 nM.
Consider `CC(=O)Nc1cccc(-n2c(-c3nc(-c4cnn(C5CCN(C)CC5)c4)cnc3N)nc3ccccc32)c1`, for which the EC50 was above 30000 nM in series [3], 8010 nM in series [4] and above 30000 nM in series [5].
As for `C=CC(=O)Nc1cccc(-n2c(-c3nc(-c4cnn(CCN5CCOCC5)c4)cnc3N)nc3ccccc32)c1`, the EC50 is 24 nM in series [3], 22 nM in series [4] and 5000 nM in series [5]. Besides, the microsomal CLint in [6] is 298 µL/min/mg. In [7], this compound registered a solubility below 10 µM.
As for `C=CC(=O)Nc1ccc(F)c(-n2c(-c3nc(-c4cnn(C5CCN(C)CC5)c4)cnc3N)nc3ccccc32)c1`, the EC50 in series [3] was 73 nM; in [4] it was 43 nM; in series [5], 4390 nM. This compound also had a solubility in series [7] below 10 µM.
Take `C=CC(=O)Nc1ccc(Cn2c(-c3nc(-c4cnn(C5CCN(C)CC5)c4)cnc3N)nc3ccccc32)cc1`: the figures for the EC50 in series [3], in series [4] and in series [5] were 1780 nM, 5060 nM and above 30000 nM, respectively.
For `C=CC(=O)Nc1cccc(Cn2c(-c3nc(-c4cnn(C5CCN(C)CC5)c4)cnc3N)nc3ccccc32)c1`, the EC50 in series [3] is 360 nM; in series [4], 280 nM; in series [5], above 25000 nM.
Consider `C=CC(=O)N(C)c1cccc(-n2c(-c3nc(-c4cnn(C5CCN(C)CC5)c4)cnc3N)nc3ccccc32)c1`, for which the results for the EC50 in series [3], in series [4] and in series [5] were 390 nM, 250 nM and 10900 nM, respectively.
Take `C=CC(=O)Nc1cccc(-n2c(-c3nc(-c4cnn(C5CCN(C)CC5)c4)cnc3N)nc3ccncc32)c1`: the EC50 in series [3] is 150 nM; in series [4] it was 100 nM; in series [5], above 15000 nM. Further, in series [6], the microsomal CLint stood at 68 µL/min/mg. The compound further returned a solubility in series [7] of 540 µM (≈ 281 µg/mL).
Consider `C=CC(=O)NCCn1c(-c2nc(-c3cnn(C4CCN(C)CC4)c3)cnc2N)nc2ccccc21`, for which, in series [1], the IC50 came out at 2200 nM. The response in series [3] was half-maximal at 14900 nM (EC50).
